The values below come from ChEMBL document CHEMBL3400133, “Three new fusidic acid derivatives and their antibacterial activity” (2015).

Calls of active or inactive are those of the source. The rule behind the calls is not given here.

Assay [1] relates to Staphylococcus aureus. As to the kind of experiment: Antibacterial activity against methicillin-resistant Staphylococcus aureus ATCC 33591 assessed as inhibition of microbial growth at 0.064 ug/ml to 125 ug/ml incubated at 37 degC for 20 hrs. It counts as functional. The following applies: ATCC 33591, 20 h.
The test system of assay [2] is Staphylococcus aureus. As to the kind of experiment: Antibacterial activity against Staphylococcus aureus ATCC 25923 assessed as inhibition of microbial growth at 0.064 ug/ml to 125 ug/ml incubated at 37 degC for 20 hrs. It counts as functional. The following applies: ATCC 25923, 20 h.
The subject of the next assay is Escherichia coli. In words: Antibacterial activity against Escherichia coli XL-1 Blue assessed as inhibition of microbial growth at 0.064 ug/ml to 125 ug/ml incubated at 37 degC for 20 hrs. It counts as functional, organism-based.

As a reminder, the MIC is the lowest concentration that inhibits growth of the organism. For the compound `CC(=O)O[C@H]1C[C@@]2(C)[C@@H](CC[C@H]3[C@@]4(C)CC[C@@H](O)[C@@H](C)[C@@H]4[C@@H](O)[C@H](OC(C)=O)[C@@]32C)/C1=C(\CCC=C(C)C)C(=O)O`, the MIC in the assay with Staphylococcus aureus [1] worked out at 125 µg/mL; in the assay on Staphylococcus aureus [2], 64 µg/mL. For the same compound, in the assay with Escherichia coli, the MIC entry was “inactive”.
As for `NC[C@H]1O[C@H](O[C@H]2[C@H](O)[C@@H](O[C@H]3O[C@H](CO)[C@@H](O)[C@H](N)[C@H]3O)[C@H](N)C[C@@H]2N)[C@H](O)[C@@H](O)[C@@H]1O` [KANAMYCIN], the MIC was greater than 125 µg/mL with Staphylococcus aureus [1] and 2 µg/mL in the assay with Staphylococcus aureus [2].
`CC(=O)OC1C[C@@]2(C)[C@@H](CC[C@H]3[C@@]4(C)CCC(=O)[C@@H](C)[C@@H]4[C@@H](O)[C@H](OC(C)=O)[C@@]32C)/C1=C(\CCC=C(C)C)C(=O)O` (single isomer, unassigned): the MIC with Staphylococcus aureus [1] was greater than 125 µg/mL; in the assay with Staphylococcus aureus [2], 64 µg/mL. The MIC result in the assay with Escherichia coli is “inactive”.
In the same order, the values of `CC(=O)OC1C[C@@]2(C)[C@@H](CC[C@H]3[C@@]4(C)CCC(=O)[C@@H](C)[C@@H]4[C@@H](OC(C)=O)[C@H](O)[C@@]32C)/C1=C(\CCC=C(C)C)C(=O)O` (single isomer, unassigned) are 8 µg/mL, 4 µg/mL and “inactive”.
In the same order, the values of `CC(=O)OC1C[C@@]2(C)[C@@H](CC[C@H]3[C@@]4(C)CCC(=O)[C@@H](C)[C@@H]4[C@@H](O)[C@H](O)[C@@]32C)/C1=C(\CCC=C(C)C)C(=O)O` (single isomer, unassigned) are greater than 125 µg/mL, greater than 125 µg/mL and “inactive”.
For `CC(=O)O[C@@H]1[C@H]2[C@H](C)[C@H](O)CC[C@]2(C)[C@@H]2CC[C@H]3/C(=C(\CCC=C(C)C)C(=O)O)[C@@H](OC(C)=O)C[C@]3(C)[C@@]2(C)[C@H]1O` the same measures were 8 µg/mL, 8 µg/mL and “inactive”.
